According to PubChem BioAssay AID248 (DTP/NCI, 2004):
Values joined by “and” are separate entries in the source; they are usually repeats but may differ in a detail not shown here. Identical values can stand only once. Toxic doses and inconclusive results are not listed. Rule as the data show it: active = T/C of 150% or more; inactive = T/C below 125%.

Test system: L1210 leukemia ip in BDF1 mice, survival T/C
Experiment: NCI In Vivo Anticancer Drug Screen. Data for tumor model L1210 Leukemia (intraperitoneal) in B6D2F1 (BDF1) mice
Settings: endpoint: mean survival time, higher = longer survival
In short: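 Read-out is survival time, reported as the treated-group measurement over the vehicle-control measurement.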

[1] = dose: 100.0 mg/kg/injection, schedule: Q01DX001 (ip), vehicle: saline
[2] = dose: 200.0 mg/kg/injection, schedule: Q01DX001 (ip), vehicle: saline
[3] = dose: 100.0 mg/kg/injection, schedule: Q01DX009 (ip), vehicle: saline with Tween-80
[4] = dose: 100.0 mg/kg/injection, schedule: Q04DX003 (ip), vehicle: saline with Tween-80
[5] = dose: 200.0 mg/kg/injection, schedule: Q01DX009 (ip), vehicle: saline with Tween-80
[6] = dose: 200.0 mg/kg/injection, schedule: Q04DX003 (ip), vehicle: saline with Tween-80
[7] = dose: 100.0 mg/kg/injection, schedule: Q04DX002 (ip), vehicle: Klucel (hydroxypropylcellulose) (HPC)
[8] = dose: 200.0 mg/kg/injection, schedule: Q04DX002 (ip), vehicle: Klucel (hydroxypropylcellulose) (HPC)
[9] = dose: 400.0 mg/kg/injection, schedule: Q04DX002 (ip), vehicle: Klucel (hydroxypropylcellulose) (HPC)
[10] = dose: 100.0 mg/kg/injection, schedule: Q04DX003 (ip), vehicle: Klucel (hydroxypropylcellulose) (HPC)
[11] = dose: 200.0 mg/kg/injection, schedule: Q04DX003 (ip), vehicle: Klucel (hydroxypropylcellulose) (HPC)
[12] = dose: 400.0 mg/kg/injection, schedule: Q04DX003 (ip), vehicle: Klucel (hydroxypropylcellulose) (HPC)
[13] = dose: 100.0 mg/kg/injection, schedule: Q01DX009 (ip), vehicle: saline
[14] = dose: 200.0 mg/kg/injection, schedule: Q01DX009 (ip), vehicle: saline
[15] = dose: 100.0 mg/kg/injection, schedule: Q01DX001 (ip), vehicle: Klucel (hydroxypropylcellulose) (HPC)
[16] = dose: 100.0 mg/kg/injection, schedule: Q01DX009 (ip), vehicle: Klucel (hydroxypropylcellulose) (HPC)
[17] = dose: 200.0 mg/kg/injection, schedule: Q01DX001 (ip), vehicle: Klucel (hydroxypropylcellulose) (HPC)
[18] = dose: 200.0 mg/kg/injection, schedule: Q01DX009 (ip), vehicle: Klucel (hydroxypropylcellulose) (HPC)
[19] = dose: 400.0 mg/kg/injection, schedule: Q01DX001 (ip), vehicle: Klucel (hydroxypropylcellulose) (HPC)
[20] = dose: 400.0 mg/kg/injection, schedule: Q01DX009 (ip), vehicle: Klucel (hydroxypropylcellulose) (HPC)
[21] = dose: 100.0 mg/kg/injection, schedule: Q04DX003 (ip), vehicle: saline
[22] = dose: 200.0 mg/kg/injection, schedule: Q04DX003 (ip), vehicle: saline
[23] = dose: 400.0 mg/kg/injection, schedule: Q04DX003 (ip), vehicle: saline
[24] = dose: 100.0 mg/kg/injection, schedule: Q04DX002 (ip), vehicle: saline
[25] = dose: 200.0 mg/kg/injection, schedule: Q04DX002 (ip), vehicle: saline

Measured: T/C

CC(NC1CCCCC1)C(=O)O (stereo not drawn)
inactive: dose: 12.5 mg/kg/injection, schedule: Q04DX002 (ip), vehicle: Klucel (hydroxypropylcellulose) (HPC) 93 % of control | dose: 25.0 mg/kg/injection, schedule: Q04DX002 (ip), vehicle: Klucel (hydroxypropylcellulose) (HPC) 96 % of control | dose: 50.0 mg/kg/injection, schedule: Q04DX002 (ip), vehicle: Klucel (hydroxypropylcellulose) (HPC) 89 % of control

c1ccc2c(c1)ncc1cccn12
inactive: [1] 103 % of control | [2] 103 % of control | dose: 400.0 mg/kg/injection, schedule: Q01DX001 (ip), vehicle: saline 103 % of control

CCCCCCCCOc1ccccn1
inactive: [3] 110 % of control | [4] 100 % of control | [5] 91 % of control | [6] 105 % of control | dose: 400.0 mg/kg/injection, schedule: Q04DX003 (ip), vehicle: saline with Tween-80 103 % of control

CS(=O)(=O)OCCN(CCOS(C)(=O)=O)c1ccc(N=O)cc1
inactive: dose: 0.08 mg/kg/injection, schedule: Q01DX Z (ip), vehicle: carboxymethylcellulose (CMC) 115 % of control | dose: 0.08 mg/kg/injection, schedule: Q01DX Z (ip), vehicle: saline 117 % of control | dose: 0.16 mg/kg/injection, schedule: Q01DX Z (ip), vehicle: carboxymethylcellulose (CMC) 123 % of control | dose: 0.16 mg/kg/injection, schedule: Q01DX Z (ip), vehicle: saline 122 % of control | dose: 0.63 mg/kg/injection, schedule: Q01DX Z (ip), vehicle: saline 120 % of control | dose: 1.25 mg/kg/injection, schedule: Q01DX Z (ip), vehicle: saline 110 % of control | dose: 1.28 mg/kg/injection, schedule: Q01DX Z (ip), vehicle: carboxymethylcellulose (CMC) 103 % of control | dose: 2.0 mg/kg/injection, schedule: Q01DX001 (ip), vehicle: saline 120 % of control | dose: 4.0 mg/kg/injection, schedule: Q01DX001 (ip), vehicle: saline 121 % of control

COC1OC(CBr)C(OS(C)(=O)=O)C(OC(=O)c2ccccc2)C1OC(=O)c1ccccc1 (stereo not drawn)
inactive: [7] 103 % of control | [8] 91 % of control | [9] 94 % of control

C[n+]1ccc(/C=C/C(=O)Nc2ccccc2)cc1
inactive: [10] 104 % of control | [11] 108 % of control | [12] 98 % of control

CCN(CC)S(=O)(=O)CC
inactive: dose: 100.0 mg/kg/injection, schedule: Q04DX002 (ip), vehicle: saline with Tween-80 99 % of control | dose: 200.0 mg/kg/injection, schedule: Q04DX002 (ip), vehicle: saline with Tween-80 96 % of control | dose: 400.0 mg/kg/injection, schedule: Q04DX002 (ip), vehicle: saline with Tween-80 92 % of control

Cc1cc(S(=O)(=O)c2ccccc2)c(C)s1
inactive: dose: 50.0 mg/kg/injection, schedule: Q01DX009 (ip), vehicle: saline 91 % of control | dose: 50.0 mg/kg/injection, schedule: Q04DX003 (ip), vehicle: acetone 96 % of control | [1] 98 % of control | [13] 89 % of control | dose: 100.0 mg/kg/injection, schedule: Q04DX003 (ip), vehicle: acetone 96 % of control | [2] 101 % of control | [14] 94 % of control | dose: 200.0 mg/kg/injection, schedule: Q04DX003 (ip), vehicle: acetone 94 % of control

COc1ccccc1/C(=C/c1ccc([N+](=O)[O-])cc1)C(=O)O
inactive: [15] 100 % of control | [16] 97 % of control and 100 % of control | [7] 101 % of control and 107 % of control | [10] 97 % of control | [17] 94 % of control | [18] 95 % of control and 103 % of control | [8] 102 % of control and 103 % of control | [11] 100 % of control | [19] 94 % of control | [20] 100 % of control | [9] 97 % of control and 104 % of control | [12] 101 % of control

O=C1c2cc(Cl)ccc2-c2c(Cl)cc(Cl)cc21
inactive: dose: 100.0 mg/kg/injection, schedule: Q01DX001 (ip), vehicle: acetone 89 % of control | [21] 87 % of control | dose: 200.0 mg/kg/injection, schedule: Q01DX001 (ip), vehicle: acetone 89 % of control | [22] 96 % of control | dose: 400.0 mg/kg/injection, schedule: Q01DX001 (ip), vehicle: acetone 95 % of control | [23] 86 % of control

N#CCCOCC(OCCC#N)C(COCCC#N)OCCC#N (stereo not drawn)
inactive: dose: 50.0 mg/kg/injection, schedule: Q01DX001 (ip), vehicle: carboxymethylcellulose (CMC) 95 % of control | dose: 100.0 mg/kg/injection, schedule: Q01DX001 (ip), vehicle: carboxymethylcellulose (CMC) 97 % of control | dose: 200.0 mg/kg/injection, schedule: Q01DX001 (ip), vehicle: carboxymethylcellulose (CMC) 97 % of control | dose: 400.0 mg/kg/injection, schedule: Q01DX001 (ip), vehicle: carboxymethylcellulose (CMC) 92 % of control

O=C(O)CSC(C(=O)O)c1ccccc1 (stereo not drawn)
inactive: dose: 50.0 mg/kg/injection, schedule: Q01DX009 (ip), vehicle: saline with Tween-80 93 % of control | [3] 92 % of control | [4] 94 % of control | [5] 93 % of control | [6] 97 % of control

N=c1c2c(N)nc(N)nc2c2ccccc2n1O
inactive: dose: 50.0 mg/kg/injection, schedule: Q04DX002 (ip), vehicle: saline 97 % of control | [24] 104 % of control | [25] 101 % of control

[O-][n+]1c2ccccc2nc2ccccc21
inactive: [10] 98 % of control | [11] 98 % of control | [12] 89 % of control

c1ccc2cc(C3OCC4(CCCC4)CO3)ccc2c1
inactive: [7] 103 % of control | [8] 95 % of control | [9] 103 % of control

Cc1cccc(C(=O)O)n1.[Cu+2]
inactive: dose: 5.0 mg/kg/injection, schedule: Q01DX001 (ip), vehicle: saline 103 % of control | dose: 10.0 mg/kg/injection, schedule: Q01DX001 (ip), vehicle: saline 113 % of control

CN(C)Cc1ccc(C(C)(C)C)cc1
inactive: dose: 25.0 mg/kg/injection, schedule: Q01DX009 (ip), vehicle: water 97 % of control | dose: 50.0 mg/kg/injection, schedule: Q01DX009 (ip), vehicle: water 105 % of control | dose: 100.0 mg/kg/injection, schedule: Q01DX009 (ip), vehicle: water 95 % of control

C=C1C(=O)OC2C1C(O)CC(C)(O)C1CC=C(C)C21 (stereo not drawn)
inactive: [24] 102 % of control | [25] 102 % of control | dose: 400.0 mg/kg/injection, schedule: Q04DX002 (ip), vehicle: saline 94 % of control

OCC(CO)(CO)CBr
inactive: [13] 96 % of control | [21] 103 % of control | [14] 105 % of control | [22] 98 % of control | dose: 400.0 mg/kg/injection, schedule: Q01DX009 (ip), vehicle: saline 104 % of control | [23] 104 % of control

CCc1ccccc1NC(=O)SCc1ccccc1
inactive: [15] 91 % of control | [16] 100 % of control and 90 % of control | [7] 95 % of control and 109 % of control | [10] 87 % of control | [17] 94 % of control | [18] 90 % of control | [8] 97 % of control and 102 % of control | [11] 102 % of control | [19] 89 % of control | [20] 108 % of control and 90 % of control | [9] 92 % of control and 105 % of control | [12] 98 % of control

CCCCCCCCCCCCCCCCCCNC(=O)Nc1ccccc1[N+](=O)[O-]
inactive: dose: 50.0 mg/kg/injection, schedule: Q01DX009 (ip), vehicle: DMSO 98 % of control | dose: 100.0 mg/kg/injection, schedule: Q01DX009 (ip), vehicle: DMSO 88 % of control | dose: 100.0 mg/kg/injection, schedule: Q04DX003 (ip), vehicle: DMSO 94 % of control | dose: 200.0 mg/kg/injection, schedule: Q04DX003 (ip), vehicle: DMSO 89 % of control
